Results taken from ChEMBL document CHEMBL4651402, “Screening of ~5500 FDA-approved drugs and clinical candidates for anti-SARS-CoV-2 activity” (2021).

System: SARS-CoV-2
Assay: microbe, parasite or virus in culture
Settings: Severe acute respiratory syndrome coronavirus 2, Vero C1008, 48 h

Row | SMILES | IC50 [µM] | IC50 (read-out: pIC50 (converted)) [µM]
1 | COc1cc2c(c(OC)n1)[C@]1(O)[C@H](O)[C@H](CN(C)C)[C@@H](c3ccccc3)[C@]1(c1ccc(C#N)cc1)O2 [ZOTATIFIN] | > 20 | > 20
2 | OC(C1=NCCN1)(c1ccc(Cl)cc1)c1ccccn1 (stereo unspecified) [DAZADROL] | > 20 | > 20
3 | NC(=O)OCC(COC(N)=O)c1ccccc1 [FELBAMATE] | > 20 | > 20
4 | O=C1CCC(c2ccc(-n3ccnc3)cc2)=NN1 [IMAZODAN] | > 20 | > 20
5 | CCCCCCCCCCCCCC[C@@H](O)[C@@H](O)[C@@H](N)CO [PHYTOSPHINGOSINE] | > 20 | > 20
6 | Oc1ccc(Cl)cc1Sc1cc(Cl)ccc1O [FENTICLOR] | > 20 | > 20
7 | Cc1[nH]c2ccccc2c1CCNCc1ccc(/C=C/C(=O)NO)cc1 [PANOBINOSTAT] | > 20 | > 20
8 | Cc1sc2c(c1C)C(c1ccc(Cl)cc1)=N[C@@H](CC(=O)Nc1ccc(O)cc1)c1nnc(C)n1-2 [BIRABRESIB] | > 20 | > 20
9 | CC(=O)Nc1ccc(O)cc1 [ACETAMINOPHEN] | > 20 | > 20
10 | CNC(=O)c1ccc(Nc2ncc(C(F)(F)F)c(NCc3nccnc3N(C)S(C)(=O)=O)n2)cc1 [DEFACTINIB] | > 20 | > 20
11 | CN1CCN(C2=Nc3cc(Cl)ccc3Nc3ccccc32)CC1 [CLOZAPINE] | > 20 | > 20
12 | Oc1ccc2c(c1)CC[C@H](c1ccccc1)[C@@H]2c1ccc(OCCN2CCCC2)cc1 [LASOFOXIFENE] | > 20 | > 20
13 | CCN(CC)CCOc1ccccc1C(=O)CCc1ccccc1 [ETAFENONE] | > 20 | > 20
14 | Nc1ccccc1C(=O)CC(N)C(=O)O (stereo unspecified) [KYNURENINE] | > 20 | > 20
15 | O=C(O)c1ccc(C2CC2c2ccc(OCc3c(-c4c(Cl)cccc4Cl)noc3C3CC3)cc2Cl)cc1 (stereo unspecified) | > 20 | > 20
16 | CC(C)(C)NCC(O)COc1cccc2c1CCC(=O)N2 (stereo unspecified) [CARTEOLOL] | > 20 | > 20
17 | CN1CC[C@@]23CCCC[C@@H]2C1Cc1ccc(O)cc13 | > 20 | > 20
18 | O=S(=O)(O)CCS [2-MERCAPTOETHANESULFONIC ACID] | > 20 | > 20
19 | Cc1ccc(OCC(O)C(C)NC(C)C)c2c1CCC2 (stereo unspecified) [ZENIDOLOL] | > 20 | > 20
20 | O=C(O)CCc1c[nH]c2ccccc12 [INDOLYLPROPIONIC ACID] | > 20 | > 20
21 | NC(=O)CCC/N=C(/c1ccc(Cl)cc1)c1cc(F)ccc1O | > 20 | > 20
22 | Cc1nc2ccccn2c(=O)c1CCN1CCc2oc3ccccc3c2C1 [LUSAPERIDONE] | > 20 | > 20
23 | CCC(CC)[C@@H](c1ccc(Nc2nc3ccccc3s2)cc1)n1cncn1 | > 20 | > 20
24 | O=C(c1cccnc1)N1CCOCC1 [NICOPHOLINE] | > 20 | > 20
25 | CC[N+](C)(CC)CCOC(=O)C(O)(c1ccccc1)C1CCCCC1 (stereo unspecified) [OXYPHENONIUM] | > 20 | > 20
26 | COc1cc2[nH]c(C)c(CCN3CCN(c4ccccc4)CC3)c2cc1OC [OXYPERTINE] | > 20 | > 20

Row | SMILES | IC50 [µM] | IC50 (read-out: pIC50 (converted)) [µM]
27 | O=C(O)C[C@@H]1CCc2c1[nH]c1ccc(OCc3ccc(C4CCCC4)c(C(F)(F)F)c3)cc21 | > 20 | > 20
28 | CCN1CCN=C1CNC(=O)c1cc(Cl)c(N)cc1OC [LINTOPRIDE] | > 20 | > 20
29 | Cc1cc(=O)oc2cc(O)ccc12 [HYMECROMONE] | > 20 | > 20
30 | COc1ccccc1OCC(O)COC(N)=O (stereo unspecified) [METHOCARBAMOL] | > 20 | > 20
31 | CC(C)[N+](C)(CCOC(=O)C1c2ccccc2Oc2ccccc21)C(C)C [PROPANTHELINE] | > 20 | > 20
32 | COc1ccnc(C[S+]([O-])c2nc3cc(-n4cccc4)ccc3[nH]2)c1C (stereo unspecified) [ILAPRAZOLE] | > 20 | > 20
33 | c1ccc2[nH]c(-c3cscn3)nc2c1 [THIABENDAZOLE] | > 20 | > 20
34 | CN[C@@H](C)[C@H](O)c1ccccc1 [EPHEDRINE] | > 20 | > 20
35 | CCN1C(=O)NC(c2ccccc2)C1=O (stereo unspecified) [ETHOTOIN] | > 20 | > 20
36 | C[C@]1(COc2ccc(N3CCC(Oc4ccc(OC(F)(F)F)cc4)CC3)cc2)Cn2cc([N+](=O)[O-])nc2O1 | > 20 | > 20
37 | COc1cc(Cc2cnc(N)nc2N)cc(OC)c1OC [TRIMETHOPRIM] | > 20 | > 20
38 | CN(C)CCCO[C@@H]1[C@H]2OC(C)(C)O[C@H]2O[C@@H]1[C@H](O)CO [AMIPRILOSE] | > 20 | > 20
39 | CN1C[C@H](C(=O)N[C@]2(C)O[C@@]3(O)[C@@H]4CCCN4C(=O)[C@H](Cc4ccccc4)N3C2=O)C[C@@H]2c3cccc4[nH]cc(c34)C[C@H]21 [DIHYDROERGOTAMINE] | > 20 | > 20
40 | CCN(CC)CC(=O)Nc1c(C)cc(C)cc1C [TRIMECAINE] | > 20 | > 20
41 | COc1ccc2c3c1O[C@H]1[C@@H](OC(C)=O)C=C[C@H]4[C@@H](C2)N(C)CC[C@@]341 | > 20 | > 20
42 | COC(=O)C1=COC(C)C2CN3CCc4c([nH]c5ccccc45)C3CC12 (stereo unspecified) | > 20 | > 20
43 | O=c1[nH]c(=O)c2nc3ccccc3nc2[nH]1 [ALLOXAZINE] | > 20 | > 20
44 | Cn1cc(-c2cnn3c(N)c(Br)c([C@@H]4CCCNC4)nc23)cn1 [SCH-900776] | > 20 | > 20
45 | O=C(c1ccccc1)c1ccc2n1CCC2C(=O)O (stereo unspecified) [KETOROLAC] | > 20 | > 20
46 | COCCOC(=O)C1=C(C)NC(C)=C(C(=O)OCC=Cc2ccccc2)C1c1cccc([N+](=O)[O-])c1 (stereo unspecified) | > 20 | > 20
47 | N=C(N)N1CCc2ccccc2C1 [DEBRISOQUIN] | > 20 | > 20
48 | CC(=O)Oc1cc(O[C@H](C)CCCc2ccccc2)cc2c1[C@@H]1C[C@H](O)CC[C@H]1[C@H](C)N2 [LEVONANTRADOL] | > 20 | > 20
49 | CCCCCCc1ccc(O)cc1O [HEXYLRESORCINOL] | > 20 | > 20
50 | COc1cc(F)c(F)c(Nc2ccc(I)cc2F)c1NS(=O)(=O)C1(C[C@H](O)CO)CC1 [REFAMETINIB] | > 20 | > 20
51 | CC1(C)OC(=O)Nc2ccc(Br)cc21 [BROFOXINE] | > 20 | > 20
52 | CC1CCc2cc(F)cc3c(=O)c(C(=O)O)cn1c23 (stereo unspecified) [FLUMEQUINE] | > 20 | > 20

Row | SMILES | IC50 [µM] | IC50 (read-out: pIC50 (converted)) [µM]
53 | Cc1nccn1Cc1cc(-c2ccc(F)c(C(F)F)c2)cnn1 [EVT-101 FREE BASE] | > 20 | > 20
54 | O=C1C=CC(=O)c2c1ccc1c2ccc2ccccc21 | > 20 | > 20
55 | CC(=O)Oc1ccc(C(=C2CCCCC2)c2ccc(OC(C)=O)cc2)cc1 [CYCLOFENIL] | > 20 | > 20
56 | C[C@H]1Oc2cc(cnc2N)-c2c(nn(C)c2C#N)CN(C)C(=O)c2ccc(F)cc21 [LORLATINIB] | > 20 | > 20
57 | CCC1(CC)C(=O)NC(=S)NC1=O | > 20 | > 20
58 | O=C(O)c1cc(O)ccc1O [GENTISIC ACID] | > 20 | > 20
59 | O=C(O)Cc1ccc(OCCNCC(O)c2ccccc2)cc1 (stereo unspecified) | > 20 | > 20
60 | NCC(O)c1ccc(O)cc1 (stereo unspecified) [OCTOPAMINE] | > 20 | > 20
61 | COc1nc(N)nc2c1ncn2[C@@H]1O[C@H](CO)[C@@H](O)[C@@H]1O [NELARABINE] | > 50.1 | > 50.1
62 | Cc1ccc(S(=O)(=O)NC(=O)NN2CC3CCCC3C2)cc1 (stereo unspecified) [GLICLAZIDE] | > 20 | > 20
63 | CCN(C/C=C\c1ccc(C2CCCCC2)c(Cl)c1)C1CCCCC1 | > 20 | > 20
64 | c1ccc(CC2=NCCN2)cc1 [TOLAZOLINE] | > 20 | > 20
65 | O=C(C[S+]([O-])Cc1ccco1)NC/C=C\COc1cc(CN2CCCCC2)ccn1 (stereo unspecified) [LAFUTIDINE] | > 20 | > 20
66 | COc1ccccc1OCC1CNC(=O)O1 (stereo unspecified) [MEPHENOXALONE] | > 20 | > 20
67 | O=C(NCCN1CCN(c2cccc3c2OC[C@@H](CO)O3)CC1)c1ccc(F)cc1 | > 20 | > 20
68 | C[C@H](N)[C@H](O)c1ccc(O)c(O)c1 [LEVONORDEFRIN] | > 20 | > 20
69 | COc1ccc2c(c1)c(CC(=O)NO)c(C)n2C(=O)c1ccc(Cl)cc1 [OXAMETACIN] | > 20 | > 20
70 | CC(C)Nc1nc2cc(Cl)c(Cl)cc2n1[C@H]1O[C@@H](CO)[C@H](O)[C@@H]1O [MARIBAVIR] | > 50.1 | > 50.1
71 | CCC(C)C1OC2(CCC1C)CC1CC(C/C=C(/C)C(OC3CC(OC)C(OC4CC(OC)C(O)C(C)O4)C(C)O3)C(C)/C=C\C=C3\COC4C(O)C(C)=CC(C(=O)O1)C34O)O2 (stereo unspecified) | > 20 | > 20
72 | N#Cc1ccccc1-c1cc(-c2ccccn2)cn(-c2ccccc2)c1=O | > 20 | > 20
73 | C/C=C1\C(=O)C[C@H]2[C@@H]3CCC4=CC(=O)CC[C@]4(C)[C@H]3CC[C@]12C [GUGGULSTERONE] | > 20 | > 20
74 | O[C@@H]1[C@@H](O)[C@@H](O)CN2CC[C@@H](O)[C@H]12 | > 20 | > 20
75 | NC(CO)(CO)CO [TROMETHAMINE] | > 20 | > 20
76 | Cc1cc(=O)[nH]c(=S)[nH]1 [METHYLTHIOURACIL] | > 20 | > 20
77 | O=C(c1ccc2nonc2c1)N1CCOCC1 [CX-717] | > 20 | > 20
78 | [2H]c1c(C([2H])([2H])[2H])nc(N2CC3CN(C(=O)c4c(F)cccc4-n4nccn4)CC3C2)nc1C([2H])([2H])[2H] (stereo unspecified) | > 20 | > 20
